Patent publication US10611740B2, “Aryl dihydro-2H-benzo[b][1,4]oxazine sulfonamide and related compounds for use as agonists of RORγ and the treatment of disease” (Lycera Corporation, priority 2015, dated 2020)

Experiments:
Gal4-RORγ-LBD = target: T1, Gal4-RORγ-LBD (Homo sapiens, UniProt P51449); test: Gal4-RORγ Luciferase Reporter Assay in HEK-293T Cells; format: cell-based; conditions: HEK-293 cells
T1 construct: expressed in transfected cells; host or cells: HEK-293 cells (pcDNA3.1neo plasmid)
T1 sequence (P51449 269-508 limits assumed): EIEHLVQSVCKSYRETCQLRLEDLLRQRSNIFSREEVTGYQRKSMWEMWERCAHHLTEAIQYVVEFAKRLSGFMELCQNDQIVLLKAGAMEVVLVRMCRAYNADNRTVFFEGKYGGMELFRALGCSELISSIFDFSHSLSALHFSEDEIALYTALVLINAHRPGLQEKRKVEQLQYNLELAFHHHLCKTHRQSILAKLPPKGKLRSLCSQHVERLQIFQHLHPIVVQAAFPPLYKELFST
Procedure, shortened: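 Luminescence read-out (One-Glo, 10 min RT) after overnight compound exposure at 37 °C in HEK-293 cells carrying Gal4-RORγ-LBD plus a Gal4-luciferase reporter, in the presence of 2 μM ursolic acid. Max Response is the upper plateau from a 4-parameter logistic fit, normalized to untreated signal = 100.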

RORγ-LBD = target: T2, RORγ-LBD (Homo sapiens, UniProt P51449); test: RORγ-Ligand Binding Domain (LBD) TR-FRET Assay; format: biochemical;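 as to TR-FRET Assay Max Response: 665/615 nm ratio relative to signal without ursolic acid or compound set at 100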
T2 construct: made in house; host or cells: SF9 cells (baculovirus)
T2 sequence (P51449 269-508 limits assumed): T1 sequence (P51449 269-508 limits assumed)
Procedure, shortened: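 This TR-FRET coactivator assay pairs baculovirus-expressed His-RORγ-LBD (~3 nM final) with biotin-SRC1 LXXLL peptide at 200 nM final in pH 7.0 Tris/KCl/EDTA/DTT/BSA buffer.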

[1] = luciferase reporter, with 2 μM ursolic acid

Structure (SMILES)	EC50 (Gal4-RORγ-LBD; 2 μM ursolic acid) [nM]	Gal4-RORγ Assay Max Response (Gal4-RORγ-LBD; 2 μM ursolic acid)	EC50 (RORγ-LBD) [nM]	TR-FRET Assay Max Response (RORγ-LBD)	EC50 (Gal4-RORγ-LBD; [1]) [nM]	Gal4-RORγ Assay Max Response (Gal4-RORγ-LBD; [1])
Cn1cc(C(=O)NC[C@H]2CN(S(=O)(=O)c3cccc(C(F)(F)F)c3)c3cc(-c4cccc(C(F)(F)F)n4)ccc3O2)c(C(F)(F)F)n1 [Compound 30BN, (S)-1-methyl-3-(trifluoro-methyl)-N-((4-((3-(trifluoro-methyl)phenyl)sulfonyl)-6-(6-(trifluoromethyl)pyridin-2-yl)-3,4-dihydro-2H-benzo[b][1,4]-oxazin-2-yl)methyl)-1H-pyrazole-4-carboxamide]	> 10000	* (The symbol “*” indicates a value in the range of 25 to 90)	500 to 5000	*** (The symbol “***” indicates a value in the range of greater than 150 to 200)	–	–
CC(C)(C(=O)NC[C@H]1CN(S(=O)(=O)c2cccc(C(F)(F)F)c2)c2cc(-c3cccc(C(F)(F)F)n3)ccc2O1)C(F)(F)F [Compound 30BY, (S)-3,3,3-trifluoro-2,2-dimethyl-N-((4-((3-(trifluoromethyl)-phenyl)sulfonyl)-6-(6-(trifluoro-methyl)pyridin-2-yl)-3,4-dihydro-2H-benzo[b][1,4]-oxazin-2-yl)methyl)propanamide]	500 to 5000	* (The symbol “*” indicates a value in the range of 25 to 90)	500 to 5000	*** (The symbol “***” indicates a value in the range of greater than 150 to 200)	–	–
CC(C)(F)C(=O)NC[C@H]1CN(S(=O)(=O)c2cccc(C(F)(F)F)c2)c2cc(-c3cccc(F)c3Cl)ccc2O1 [Compound 30BZ, (S)-N-((6-(2-chloro-3-fluoro-phenyl)-4-((3-(trifluoromethyl)-phenyl)sulfonyl)-3,4-dihydro-2H-benzo[b][1,4]oxazin-2-yl)methyl)-2-fluoro-2-methylpropanamide]	< 500	* (The symbol “*” indicates a value in the range of 25 to 90)	< 500	**** (The symbol “****” indicates a value greater than 200)	–	–
CC(C)(O)C(=O)NCC[C@H]1CN(S(=O)(=O)c2cccc(C(F)(F)F)c2)c2cc(-c3cncc(C(F)(F)F)c3)ccc2O1 [Compound 30C, (S)-2-hydroxy-2-methyl-N-(2-(4-((3-(trifluoromethyl)-phenyl)sulfonyl)-6-(5-(trifluoromethyl)pyridin-3-yl)-3,4-dihydro-2H-benzo[b][1,4]oxazin-2-yl)ethyl)propanamide]	–	–	< 500	**** (The symbol “****” indicates a value greater than 200)	< 500	* (The symbol “*” indicates a value in the range of 25 to 90)
O=C(NC[C@H]1CN(S(=O)(=O)c2cccc(C(F)(F)F)c2)c2cc(-c3cccc(F)c3Cl)ccc2O1)C(=O)C1CC1 [Compound 30CA, (S)-N-((6-(2-chloro-3-fluoro-phenyl)-4-((3-(trifluoromethyl)-phenyl)sulfonyl)-3,4-dihydro-2H-benzo[b][1,4]oxazin-2-yl)methyl)-2-cyclopropyl-2-oxoacetamide]	< 500	* (The symbol “*” indicates a value in the range of 25 to 90)	< 500	*** (The symbol “***” indicates a value in the range of greater than 150 to 200)	–	–
O=C(NC[C@H]1CN(S(=O)(=O)c2cccc(C(F)(F)F)c2)c2cc(-c3cccc(F)c3Cl)ccc2O1)C1(CO)CC1 [Compound 30CB, (S)-N-((6-(2-chloro-3-fluoro-phenyl)-4-((3-(trifluoromethyl)-phenyl)sulfonyl)-3,4-dihydro-2H-benzo[b][1,4]oxazin-2-yl)methyl)-1-(hydroxymethyl)-cyclopropane-1-carboxamide]	< 500	* (The symbol “*” indicates a value in the range of 25 to 90)	< 500	*** (The symbol “***” indicates a value in the range of greater than 150 to 200)	–	–
COc1cc(S(=O)(=O)N2C[C@H](CNC(=O)[C@@](C)(O)C(F)(F)F)Oc3ccc(-c4cccc(C(F)(F)F)n4)cc32)ccc1F [Compound 30CC, (R)-3,3,3-trifluoro-N-(((S)-4-((4-fluoro-3-methoxyphenyl)-sulfonyl)-6-(6-(trifluoromethyl)-pyridin-2-yl)-3,4-dihydro-2H-benzo[b][1,4]oxazin-2-yl)methyl)-2-hydroxy-2-methylpropanamide]	< 500	** (The symbol “**” indicates a value in the range of greater than 90 to 150)	< 500	*** (The symbol “***” indicates a value in the range of greater than 150 to 200)	–	–
Cn1cc(C(=O)NC[C@H]2CN(S(=O)(=O)c3cccc(C(F)(F)F)c3)c3cc(-c4cccc(F)c4Cl)ccc3O2)cn1 [Compound 30CD, (S)-N-((6-(2-chloro-3-fluoro-phenyl)-4-((3-(trifluoromethyl)-phenyl)sulfonyl)-3,4-dihydro-2H-benzo[b][1,4]oxazin-2-yl)methyl)-1-methyl-1H-pyrazole-4-carboxamide]	< 500	** (The symbol “**” indicates a value in the range of greater than 90 to 150)	< 500	*** (The symbol “***” indicates a value in the range of greater than 150 to 200)	–	–
CC(F)(F)C(=O)NC[C@H]1CN(S(=O)(=O)c2cccc(C(F)(F)F)c2)c2cc(-c3cccc(F)c3Cl)ccc2O1 [Compound 30CE, (S)-N-((6-(2-chloro-3-fluoro-phenyl)-4-((3-(trifluoromethyl)-phenyl)sulfonyl)-3,4-dihydro-2H-benzo[b][1,4]oxazin-2-yl)methyl)-2,2-difluoro-propanamide]	< 500	* (The symbol “*” indicates a value in the range of 25 to 90)	< 500	*** (The symbol “***” indicates a value in the range of greater than 150 to 200)	–	–
O=C(NC[C@H]1CN(S(=O)(=O)c2cccc(C(F)(F)F)c2)c2cc(-c3cccc(F)c3Cl)ccc2O1)C1CC1 [Compound 30CF, (S)-N-((6-(2-chloro-3-fluoro-phenyl)-4-((3-(trifluoromethyl)-phenyl)sulfonyl)-3,4-dihydro-2H-benzo[b][1,4]oxazin-2-yl)methyl)cyclopropanecarbox-amide]	< 500	** (The symbol “**” indicates a value in the range of greater than 90 to 150)	< 500	**** (The symbol “****” indicates a value greater than 200)	–	–
CC(C)(O)CC(=O)NC[C@H]1CN(S(=O)(=O)c2cccc(C(F)(F)F)c2)c2cc(-c3cccc(F)c3Cl)ccc2O1 [Compound 30CG, (S)-N-((6-(2-chloro-3-fluoro-phenyl)-4-((3-(trifluoromethyl)-phenyl)sulfonyl)-3,4-dihydro-2H-benzo[b][1,4]oxazin-2-yl)methyl)-3-hydroxy-3-methylbutanamide]	500 to 5000	* (The symbol “*” indicates a value in the range of 25 to 90)	< 500	*** (The symbol “***” indicates a value in the range of greater than 150 to 200)	–	–
COCCC(=O)NC[C@H]1CN(S(=O)(=O)c2cccc(C(F)(F)F)c2)c2cc(-c3cccc(F)c3Cl)ccc2O1 [Compound 30CH, (S)-N-((6-(2-chloro-3-fluoro-phenyl)-4-((3-(trifluoromethyl)-phenyl)sulfonyl)-3,4-dihydro-2H-benzo[b][1,4]oxazin-2-yl)methyl)-3-methoxy-propanamide]	500 to 5000	* (The symbol “*” indicates a value in the range of 25 to 90)	< 500	*** (The symbol “***” indicates a value in the range of greater than 150 to 200)	–	–
CO[C@@H](C)C(=O)NC[C@H]1CN(S(=O)(=O)c2cccc(C(F)(F)F)c2)c2cc(-c3cccc(F)c3Cl)ccc2O1 [Compound 30CI, (S)-N-(((S)-6-(2-chloro-3-fluorophenyl)-4-((3-(trifluoro-methyl)phenyl)sulfonyl)-3,4-dihydro-2H-benzo[b][1,4]-oxazin-2-yl)methyl)-2-methoxypropanamide]	500 to 5000	* (The symbol “*” indicates a value in the range of 25 to 90)	< 500	*** (The symbol “***” indicates a value in the range of greater than 150 to 200)	–	–
CC(=O)N[C@H](C)C(=O)NC[C@H]1CN(S(=O)(=O)c2cccc(C(F)(F)F)c2)c2cc(-c3cccc(F)c3Cl)ccc2O1 [Compound 30CJ, (R)-2-acetamido-N-(((S)-6-(2-chloro-3-fluorophenyl)-4-((3-(trifluoromethyl)phenyl)-sulfonyl)-3,4-dihydro-2H-benzo[b][1,4]oxazin-2-yl)methyl)propanamide]	500 to 5000	* (The symbol “*” indicates a value in the range of 25 to 90)	< 500	** (The symbol “**” indicates a value in the range of greater than 90 to 150)	–	–
